# In article PMC3804129 (Journal of medicinal chemistry, 2013):
# Target: T1, human VAChT (Homo sapiens, UniProt Q16572)
# T1 sequence (Q16572 1-532): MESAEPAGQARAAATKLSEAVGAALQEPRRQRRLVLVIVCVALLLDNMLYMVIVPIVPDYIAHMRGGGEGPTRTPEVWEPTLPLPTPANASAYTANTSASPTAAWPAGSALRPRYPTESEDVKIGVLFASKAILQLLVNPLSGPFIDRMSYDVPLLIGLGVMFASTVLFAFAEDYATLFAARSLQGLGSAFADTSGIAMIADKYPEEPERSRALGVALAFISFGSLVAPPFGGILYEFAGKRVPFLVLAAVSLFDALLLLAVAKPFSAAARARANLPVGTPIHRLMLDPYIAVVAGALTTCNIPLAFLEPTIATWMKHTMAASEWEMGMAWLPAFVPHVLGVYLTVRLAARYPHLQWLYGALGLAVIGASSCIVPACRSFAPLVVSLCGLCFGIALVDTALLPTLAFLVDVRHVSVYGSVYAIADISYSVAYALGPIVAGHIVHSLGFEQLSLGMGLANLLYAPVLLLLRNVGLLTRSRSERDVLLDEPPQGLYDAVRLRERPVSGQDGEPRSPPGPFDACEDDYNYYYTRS
# Test: VAChT binding assay, displacement of
# Conditions: for decrease in affinity for VAChT compared to 19e: relative to compound 19e; for selectivity for VAChT over σ receptors (σ1 and σ2): versus either sigma receptor type; for VAChT selectivity Kiσ1/Ki VAChT: Ki for σ1 divided by Ki for VAChT; for decrease in affinity for VAChT compared to 9: relative to compound 9
compound,measurement,setting,value
"COc1cccnc1C(=O)C1CCN(C2Cc3ccccc3CC2O)CC1 (racemic) [Compound 19f, (1-(3-Hydroxy-1,2,3,4-tetrahydronaphthalen-2-yl)piperidin-4-yl)(3-methoxypyridin-2-yl)methanone]",decrease in affinity for VAChT compared to 19e,,15 fold
"O=C(c1cncc(F)c1)C1CCN(C2Cc3ccccc3CC2O)CC1 (racemic) [Compound 19g, (5-Fluoropyridin-3-yl)(1-(3-hydroxy-1,2,3,4-tetrahydronaphthalen-2-yl)piperidin-4-yl)methanone]",selectivity for VAChT over σ receptors (σ1 and σ2),,> 70 fold
"CNc1ccc(C(=O)C2CCN(C3Cc4ccccc4CC3O)CC2)cc1 (racemic) [Compound 24b, (1-(3-Hydroxy-1,2,3,4-tetrahydronaphthalen-2-yl)piperidin-4-yl)(4-(methylamino)phenyl) methanone]",VAChT selectivity Kiσ1/Ki VAChT,,100
"Cn1cccc1C(=O)C1CCN(C2Cc3ccccc3CC2O)CC1 (racemic) [Compound 19a, (1-(3-Hydroxy-1,2,3,4-tetrahydronaphthalen-2-yl)piperidin-4-yl)(1-methyl-1H-pyrrol-2-yl)methanone]",decrease in affinity for VAChT compared to 9,,4-5 fold
same,selectivity for VAChT over σ receptors (σ1 and σ2),,> 70 fold
"O=C(c1cccnc1)C1CCN(C2Cc3ccccc3CC2O)CC1 (racemic) [Compound 19c, (1-(3-Hydroxy-1,2,3,4-tetrahydronaphthalen-2-yl)piperidin-4-yl)(pyridin-3-yl)methanone]",lower affinity for VAChT compared to benzoyl counterpart 5,relative to compound 5,5 fold
"Cn1cccc1C(=O)C1CCN(C2Cc3c(N)cccc3CC2O)CC1 (racemic) [Compound 30a, (1-(8-Amino-3-hydroxy-1,2,3,4-tetrahydronaphthalen-2-yl)piperidin-4-yl)(1-methyl-1Hpyrrol-2-yl)methanone]",higher VAChT binding affinity than 31a,relative to compound 31a,60 fold
"O=C(c1cccnc1F)C1CCN(C2Cc3ccccc3CC2O)CC1 (racemic) [Compound 19k, (2-Fluoropyridin-3-yl)(1-(3-hydroxy-1,2,3,4-tetrahydronaphthalen-2-yl)piperidin-4-yl)methanone]",VAChT selectivity Kiσ1/Ki VAChT,,100
"O=C(c1ccc(OCCF)nc1)C1CCN(C2Cc3ccccc3CC2O)CC1 (racemic) [Compound 26a, (6-(2-Fluoroethoxy)pyridin-3-yl)(1-(3-hydroxy-1,2,3,4-tetrahydronaphthalen-2-yl)-piperidin-4-yl)methanone]",decrease in affinity for VAChT compared to 19e,,4.5 fold
"Cn1ccc(C(=O)C2CCN(C3Cc4ccccc4CC3O)CC2)c1 (racemic) [Compound 19b, (1-(3-Hydroxy-1,2,3,4-tetrahydronaphthalen-2-yl)piperidin-4-yl)(1-methyl-1H-pyrrol-3-yl)methanone]",decrease in affinity for VAChT compared to 9,,4-5 fold
